Measured values reported in PMC4738272 (Scientific Reports, 2016).
Several values for one entry are separate records, joined by “and”; a condition that tells them apart may be missing. Identical values can stand only once. Entries after “also recorded” stand apart in the source; their conditions may differ.

Assays:
[1] = system: HepG2/C3A; experiment: MTT viability of liver module in 4-organ system; assay type: cell-based, human; settings: 4-organ co-culture under flow, serum-free medium, 48 h drug treatment, day 7, vs control, DOX 5 μM, ATR 100 μM, VPA 2 mM, APAP 5 mM, AMAP 5 mM
Description: (§1) The four organ in vitro systems were assembled, on day 0, by placing the corresponding surfaces cell side up in a specific chamber of the housing (liver coverslip into chamber 1, cardiac coverslips and cantilevers into chambers 2 and 4, muscle coverslips into chamber 5, and neuron coverslips into chamber 3 and they were then topped with the serum-free co-culture medium (1X Neurobasal Medium, 1X B27, 1X AB/AM, 1X Glutamax (all from Life Technologies)) before locking the system. Right after assembling, the medium was completely replaced with 4 mL of the co-culture defined serum-free medium and the systems placed on a rocking platform inside an incubator. Platforms were checked every day by inspecting for expected cell morphology inside the system and by replacing medium (1.2 mL total volume) from the two reservoirs (30% of the total volume was replaced) with fresh medium. Drug incubation was initiated on day 5 of the co-culture by addition of the drug through the reservoir closer to the liver chamber (no. 1), allowing a first contact of the drug with the liver. 20 μL of the drug stock solution (or vehicle) to achieve a working concentration in 4 mL of total volume in the platform was utilized. On day 6, after 24 hours of drug incubation, 6 μL of the drug stock solution (or vehicle) was added to the fresh medium exchange volume (1.2 mL). After 48 hour of drug incubation, on day 7, systems were disassembled to test organ functionality that same day. For mono-culture conditions, surfaces remained in a 12-well plated with 1 mL of the co-culture defined serum-free medium maintained by daily replacement of half volume.
(§2) Seven days after the initiation of the co-culture, viability of each organ chamber, except for neurons, was evaluated through an MTT assay. […] Cell viability was measured at 570 nm in a Synergy HT plate reader and KC4 software. The results were expressed as the percentage of cell survival relative to the control (untreated or incubated with vehicle). The neuronal fraction viability was evaluated through morphological analysis throughout the co-culture experiment as the final coverslips were used for patch-clamp electrophysiology. Phase images (10X) where obtained every day of the co-culture. Neuronal viability was evaluated by cell morphology integrity and by cell count from day 1 to day 14.

[2] = system: HepG2/C3A; experiment: Urea quantification, liver fraction of 4-organ system; assay type: cell-based, human; settings: 4-organ co-culture under flow, 48 h drug treatment, vs control
[3] = system: HepG2/C3A; experiment: Human Serum Albumin quantification (ELISA), liver fraction of 4-organ system; assay type: cell-based; settings: 4-organ co-culture under flow, 48 h drug treatment, vs control, DOX 5 μM, ATR 100 μM, VPA 2 mM, APAP 5 mM, AMAP 5 mM
Description: Human Serum Albumin (HSA) production from the liver fraction was tracked throughout the co-culture, by measuring the HSA concentration in the supernatant of the culture as it represents liver protein anabolism. Samples were collected from the exchanged medium (1.2 mL) and stored at −20 °C until analysis. One freeze-thaw cycle occurred before samples were analyzed following manufacturers’ instructions provided in the ELISA Starter Accessory Kit (Bethyl Laboratories Inc, Cat #: E101). Samples were diluted as necessary in sample conjugate/diluent buffer to ensure readings measured within the range of the standard curve. The standard curve was prepared by serial dilutions of human reference serum in sample conjugate/diluent buffer (0–1600 ng/ml).
Final HSA concentrations were calculated in an excel file by first removing the average OD reading measured for blanks from average sample and standard OD readings. Concentrations of standard dilutions were plotted against average OD values measured in XY scatter plots. A standard curve was created by adding an order of 2 polynomial trendline to XY scatter plots and selecting the option to display the equation of the trendline, as well as the R^2 value, on each scatter plot (for ease of analysis HSA sigmoidal curves were split into 3 standard curves with HSA concentration ranges of 0–200 ng/ml, 200–800 ng/ml and […]). Quadratic equations were rearranged to make X (sample HSA concentration) the unknown variant. Y values (OD values) and a/b/c constants generated from trendline equations were inputted into rearranged quadratic equations per assay. HSA concentrations calculated were corrected accordingly for any differences in culture final volumes, sample dilutions during assays and cells number.

[4] = system: iPSc differentiated Cardiomyocytes; experiment: Cardiac beating frequency from video recordings; assay type: cell-based, human; settings: 4-organ co-culture under flow, 48 h drug treatment, day 7, vs control; for Cardiomyocyte beating rate (beat frequency), decrease: DOX 5 μM, AMAP 5 mM; for Cardiomyocyte beating rate (beat frequency), increase: ATR 100 μM, VPA 2 mM, APAP 5 mM
Description: Seven or fourteen days after the co-culture, cardiac beating frequency was quantified from video recordings of three different areas of each of the cMEA surfaces, where the cardiomyocytes culture where located. Surfaces were located in a 37 °C bath platform containing co-culture medium with 50 mM HEPES on the stage of a Zeiss Axioscope 2FS upright microscope. Beats were counted in a period of 10 s, and the average number of 3 values was obtained. Drug effect was plotted as percentage of change compared to the control conditions.

[5] = system: Human Skeletal Myofibers; experiment: Myotube stimulated contraction (binary: contracting or not); assay type: cell-based; settings: 4-organ co-culture under flow, 48 h drug treatment, day 7, broad-field electrical stimulation, DOX 5 μM, ATR 100 μM, VPA 2 mM, APAP 5 mM, AMAP 5 mM
Description: Myotube contraction in coverslips was evaluated after the co-culture was finalized. Individual surfaces were evaluated as previously reported in the group. Drugs effects were quantify in a binary code mode, cells were or were not contracting.

[6] = system: neurons; experiment: Neuron electrophysiology recording (patch clamp); assay type: cell-based, human; settings: 4-organ co-culture under flow, 48 h drug treatment, day 7, vs control, DOX 5 μM, ATR 100 μM, APAP 5 mM, AMAP 5 mM; for Neuronal electrophysiology, overall effect: VPA 2 mM
Description: Electrophysiological properties of neuron cultures where recorded on the last day of co-culture following a previously described method. Values of firing, repetitive firing, spontaneous firing, inward sodium current, outward potassium current, action potential peak voltage and the resting membrane potential, characterized the mature functionality of neurons in the in vitro system. Drug alterations of the neuronal electrophysiology are discussed in this manuscript.

[7] = system: Liver; set-up: method as in Literature; settings: general toxic effects reported in the literature; ref Literature; cited from earlier work
[8] = system: Muscle; set-up: method as in Literature; settings: general toxic effects reported in the literature; ref Literature; cited from earlier work
[9] = system: Neurons; set-up: method as in Literature; settings: general toxic effects reported in the literature; ref Literature; cited from earlier work
[10] = system: Cardiomyocytes; set-up: method as in Literature; settings: general toxic effects reported in the literature; ref Literature; cited from earlier work
[11] = system: iPSc differentiated Cardiomyocytes; experiment: MTT viability of cardiac module in 4-organ system; settings: 4-organ co-culture under flow, serum-free medium, 48 h drug treatment, day 7, vs control, DOX 5 μM, ATR 100 μM, VPA 2 mM, APAP 5 mM, AMAP 5 mM
Description: as §1, §2

[12] = system: Human Skeletal Myofibers; experiment: MTT viability of skeletal muscle module in 4-organ system; settings: 4-organ co-culture under flow, serum-free medium, 48 h drug treatment, day 7, vs control, DOX 5 μM, ATR 100 μM, VPA 2 mM, APAP 5 mM, AMAP 5 mM
Description: as §1, §2

[13] = system: neurons; experiment: Neuronal viability by morphological analysis and cell count in 4-organ system; settings: 4-organ co-culture under flow, serum-free medium, 48 h drug treatment, day 7, vs control, DOX 5 μM, ATR 100 μM, VPA 2 mM, APAP 5 mM, AMAP 5 mM
Description: as §1, §2

[14] = therapeutic dosages; cited from earlier work
[15] = cited from earlier work

CC(=O)Nc1cccc(O)c1 [N-Acetyl-m-aminophenol]
Liver (hepatocyte) cell viability, loss [1]: Toxicity not observed | Liver (hepatocyte) cell viability, loss ([1]; listed as AMAP): No significant effects | Urea production, increase ([2]; DOX 5 μM, ATR 100 μM, APAP 5 mM, AMAP 5 mM): 138 ± 19% | HSA (albumin) production, increase [3]: 23 ± 4% | Cardiomyocyte beating rate (beat frequency), decrease [4]: 25 ± 4% decrease in beating rate | Cardiomyocyte beating rate (beat frequency), decrease ([4]; listed as AMAP): 25 ± 4% and 30% | Skeletal muscle loss of contractile ability (share of cultures in which contraction ceased) [5]: No loss in contractile ability | Skeletal muscle loss of contractile ability (share of cultures in which contraction ceased) ([5]; listed as AMAP): not affected | Neuronal repetitive and spontaneous firing ability [6]: conserved | Neuronal electrophysiology, overall effect [6]: Normal electrophysiology | Neuronal electrophysiology, overall effect ([6]; listed as AMAP): no significant changes compared to the control | Drug effects on cell functionality, Liver, Literature [7]: Toxicity not reported | Drug effects on cell viability, Liver, Literature [7]: Toxicity not reported | Drug effects on cell functionality, Muscle, Literature [8]: Toxicity not reported | Drug effects on cell viability, Muscle, Literature [8]: Toxicity not reported | Drug effects on cell functionality, Neurons, Literature [9]: Toxicity not reported | Drug effects on cell viability, Neurons, Literature [9]: Toxicity not reported | Drug effects on cell functionality, Cardiomyocytes, Literature [10]: Toxicity not reported | Drug effects on cell viability, Cardiomyocytes, Literature [10]: Toxicity not reported | Cardiomyocyte viability, loss [11]: 28 ± 6% loss | Cardiomyocyte viability, loss ([11]; listed as AMAP): 28 ± 6% and 30% | Skeletal muscle viability, loss [12]: Toxicity not observed | Skeletal muscle viability, loss ([12]; listed as AMAP): not affected | Neuronal cell viability, loss (cell loss by morphology/cell count) [13]: Toxicity not observed, some increase in cell numbers but not significant | Neuronal cell viability, loss (cell loss by morphology/cell count) ([13]; listed as AMAP): No significant effects; also recorded: some increase in cell numbers; also recorded: no change in viability

CCCC(CCC)C(=O)O [Valproic Acid, Valproic acid]
Urea production, decrease ([2]; VPA 2 mM): 13 ± 2% | HSA (albumin) production, increase [3]: not affected | HSA (albumin) production, increase ([3]; listed as VPA): no changes | Cardiomyocyte beating rate (beat frequency), increase [4]: 38 ± 18% increase in beating frequency | Cardiomyocyte beating rate (beat frequency), increase ([4]; listed as VPA): 38 ± 18% | Neuronal electrophysiology, overall effect [6]: Normal electrophysiology | Neuronal electrophysiology, overall effect ([6]; listed as VPA): no changes compared to the control; also recorded: maintained the electrophysiological parameters | Drug effects on cell functionality, Muscle, Literature [8]: Toxicity not reported | Drug effects on cell viability, Muscle, Literature [8]: Toxicity not reported | Drug effects on cell functionality, Neurons, Literature [9]: Toxicity not reported | Drug effects on cell viability, Neurons, Literature [9]: Toxicity not reported | Drug effects on cell functionality, Cardiomyocytes, Literature [10]: Cardio-protective effect | Drug effects on cell viability, Cardiomyocytes, Literature [10]: Cardio-protective effect | Concentration detected in patient plasma [14]: 300 to 700 µM | Concentration known to be cytotoxic in vitro [15]: around 2 mM
